The values below come from patent publication US11591319B2, “Small molecule inducers of autophagy” (Board of Regents, The University of Texas System, priority 2018, dated 2023).

Data set [1] addresses T1, Beclin 1/Bcl-2 interaction (Homo sapiens (Human), UniProt P10415). Kind of data set: Beclin 1/Bcl-2 AlphaLISA assay (dose-response). Particulars: positive control. The data set is classed as binding. The source says:
We also developed a high-throughput Beclin 1/Bcl-2 AlphaLISA assay to directly measure the in vitro interaction between Beclin 1 and Bcl-2. AlphaLISA is a bead-based proximity assay that is capable of measuring protein-protein interaction in homogeneous solution.^41 Oxygen singlet molecules are generated by Alpha donor beads upon irradiation at 680 nm and travel to acceptor beads in proximity. […] Thus, a measurable Alpha luminescence signal requires chemical energy transfer between the donor and acceptor beads, and a pair of interacting molecules immobilized on the beads stabilizes bead association to produce measurable Alpha signals.
We used purified recombinant Beclin 1 and Bcl-2 proteins for AlphaLISA, which were optimized for enhanced solubility and expression. Human Beclin 1 was expressed as a fusion protein with StrepII-SUMO at the N-terminus, and three residues on the aromatic finger of Beclin 1 were mutated (F359D/F360D/W361D) to improve solubility and protein stability.^42 These mutations are in the BARA domain, which is far from the BH3 motif recognized by Bcl-2. A recombinant Bcl-2-binding deficient mutant of Beclin 1 (StrepII-SUMO-Beclin 1^ΔBcl-2BD) was used as a negative control. […] For a normalization control, we included a parallel AlphaLISA assay with purified SUMO protein (with an N-terminal StrepII tag and a C-terminal 6xHis tag). The purpose of a normalization control is to eliminate inner filter (false-positive) hits that reduce luminescence signal by interfering with the AlphaLISA assay in ways that are unrelated to the Beclin 1/Bcl-2 interaction. With the normalization control, the interaction of Beclin 1 and Bcl-2 was measured as follows:
All AlphaLISA assays were performed in triplicate in a 384-well format with BB buffer (phosphate-buffered saline supplemented with 0.5% BSA and 1 mM DTT). For the Beclin 1/Bcl-2 AlphaLISA, purified StrepII-SUMO-Beclin 1 was incubated with Bcl-2-6xHis proteins at 300 nM and 60 nM, respectively. For internal control AlphaLISA assays, StrepII-SUMO-6xHis protein (internal control) was used at 20 nM. […] Following the initial incubation, Strep-Tactin Alpha donor (AS106D) and anti-6xHis AlphaLISA acceptor beads (AL128M) were added to a final concentration of 40 μg/mL each and incubated at room temperature in the dark for an additional 1 h. All samples were evaluated in triplicate. Alpha signals were measured by an Envision plate reader (Perkin Elmer). Beclin 1/Bcl-2 Alpha signal was normalized with internal control Alpha signal. The normalized value represents the binding activity of Beclin 1 and Bcl-2. The percent activity of a compound was calculated as the following formula: […]
Protein or peptide concentrations used in dose-response AlphaLISA experiments were as follows: Beclin1/Bcl-2—300 nM/60 nM; SUMO (internal control for Beclin 1/Bcl-2 AlphaLISA)—20 nM; Beclin 1 BH3/Bcl-2—1000 nM/60 nM; Bax BH3/Bcl-2—100 nM/20 nM; Biotin-6xHis (internal control for BH3/Bcl-2 AlphaLISA)—10
Target sequence in this assay (P10415 1-218): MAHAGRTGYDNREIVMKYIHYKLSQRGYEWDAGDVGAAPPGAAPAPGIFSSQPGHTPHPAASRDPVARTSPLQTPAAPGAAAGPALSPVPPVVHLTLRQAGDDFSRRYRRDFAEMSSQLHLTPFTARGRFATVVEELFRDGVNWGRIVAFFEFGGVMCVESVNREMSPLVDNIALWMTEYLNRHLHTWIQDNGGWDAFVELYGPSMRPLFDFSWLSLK
In general terms: In Alpha technology, singlet oxygen from a donor bead excites a nearby acceptor bead.

The target in data set [2] is BH3 domain of Beclin 1/Bcl-2 (Homo sapiens (Human), UniProt P10415). Put plainly: Beclin 1 BH3 peptide/Bcl-2 AlphaLISA. The data set is classed as binding. Particulars: AlphaLISA with BH3 peptide. The source says: (§1) To assess selectivity for disruption of binding of the BH3 domain of Beclin 1 to Bcl-2 as compared to that of a pro-apoptotic Bcl-2 family member, we used an AlphaLISA with purified recombinant Bcl-2 and peptides spanning either the BH3 domain (amino acids 105-130) of Beclin 1 or the BH3 domain (amino acids 49-84) of Bax.
Chain of BH3 domain of Beclin 1/Bcl-2 (P10415 1-218): as above
(§2) The Beclin 1 BH3 peptide consists of an N-terminally linked biotin, a YGGGGS linker, and […] (a.a. 105-130) derived from human Beclin 1. Bax BH3 peptide consists of an N-terminally linked biotin, a YGGGGS linker, and 36 amino acids (a.a. 49-84) derived from human Bax. Biotin-6xHis control peptide consists of an N-terminally linked biotin, a YGGGGS linker, and a 6xHis tag at C-terminus.
(§3) For dose-response AlphaLISA experiments, compounds were serially diluted (2-fold, 7 point) with DMSO and added to BB buffer containing purified recombinant proteins or biotinylated peptides at a final concentration range of 10 μM to 156 nM. Protein or peptide concentrations used in dose-response AlphaLISA experiments were as follows: Beclin1/Bcl-2—300 nM/60 nM; SUMO (internal control for Beclin 1/Bcl-2 AlphaLISA)—20 nM; Beclin 1 BH3/Bcl-2—1000 nM/60 nM; Bax BH3/Bcl-2—100 nM/20 nM; Biotin-6xHis (internal control for BH3/Bcl-2 AlphaLISA)—10

For another data set, the target named is BH3 domain of Bax/Bcl-2 (Homo sapiens (Human), UniProt P10415). Put plainly: Bax BH3 peptide/Bcl-2 AlphaLISA. The data set is classed as binding. Particulars: AlphaLISA with BH3 peptide.
Chain of BH3 domain of Bax/Bcl-2 (P10415 1-218): as above
Source text: as §1, §2, §3

In data set [3] the target is Bim/Myc-Bcl-2 interaction (Homo sapiens (Human), UniProt P10415). Put plainly: Co-immunoprecipitation of Bim with Myc-Bcl-2 in HeLa cells. The data set is classed as cell-based. Particulars: 12 h treatment. The text has this: For the two compounds for which we had sufficient supply for large-scale tissue culture experiments (SW063058 and SW076956), we examined their effects on Beclin 1, Bax, and Bim co-immunoprecipitation with Bcl-2.
Chain of Bim/Myc-Bcl-2 interaction (P10415 whole entry): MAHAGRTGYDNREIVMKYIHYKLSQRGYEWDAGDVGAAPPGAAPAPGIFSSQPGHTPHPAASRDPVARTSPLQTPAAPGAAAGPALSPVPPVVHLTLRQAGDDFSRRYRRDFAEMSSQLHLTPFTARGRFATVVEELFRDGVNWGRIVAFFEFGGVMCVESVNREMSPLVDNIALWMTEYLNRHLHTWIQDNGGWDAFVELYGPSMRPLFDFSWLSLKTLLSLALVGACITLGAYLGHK

The target of data set [4] is T1, Beclin 1/Bcl-2 interaction. Put plainly: Beclin 1/Bcl-2 split-luciferase assay in HeLa cells. The data set is classed as cell-based.
Target sequence in this assay (P10415 whole entry): as above
Source text: The split-luciferase approach relies on the reconstitution of two fragments of firefly luciferase, NLuc (amino acids 2-416) and CLuc (amino acids 398-550) expressed with proteins of interest as fusion partners. Upon the binding of interacting partners, two non-functional fragments of the luciferase are brought into proximity, forming an active luciferase protein. To measure Beclin 1/Bcl-2 interaction with the split-luciferase assay, we created HeLa cell lines expressing N-terminal NLuc-tagged Beclin 1 (NLuc-Beclin 1) and CLuc-tagged Bcl-2 (CLuc-Bcl-2) as split-luciferase reporters. […] Renilla luciferase was constitutively expressed as an internal control. The interaction of Beclin 1/Bcl-2 was measured as relative luminescence units (RLU), which was the calculated ratio of split-luciferase and Renilla luciferase signals: […]
DMSO (neutral control), ABT-737 (positive control), or the library compounds were added to a final concentration of 5 μM and incubated at 37° C. […] After 5 h of incubation, the medium was removed by centrifugation and the activity of Beclin 1/Bcl-2 split-luciferase reporters was measured with Dual-Glo® Luciferase Assay System (Promega). […] Ten microliters of 1× RL buffer (Stop & Glo Reagent) was then added to the sample, the sample was incubated at room temperature for 10 min, and the activity of Renilla luciferase was measured again. […]
The subject of data set [5] is HeLa cells stably expressing GFP-LC3. Put plainly: GFP-LC3 puncta quantitation (autophagy). The data set is classed as cell-based. As to the method:
We used well-established assays to assess their autophagic activity,^45 including (i) quantitation of GFP-LC3 puncta (which label autophagosomes) in the presence and absence of the lysosomal inhibitor, bafilomycin A1 (Baf A1), and (ii) western blot analysis of the conversion of LC3-I to the lipidated, autophagosomal-associated protein, LC3-II in the presence and absence of Baf A1. […] Shorter durations of lower concentrations of compounds (10 μM) also produced similar results. […] Thus, these compounds induce autophagic flux in HeLa cells.
(§4) We assessed whether the induction of autophagy by SW063058 and SW076956 requires Beclin 1 and Bcl-2 using siRNA to knockdown each protein, respectively, in HeLa, cells.

The subject of data set [6] is HeLa cells. Kind of data set: p62 levels after Beclin 1 or Bcl-2 siRNA knockdown. The data set is classed as cell-based. The note with it: cells with either Beclin 1 or Bcl-2 knockdown.
Source text: as §4

Data set [7] deals with HeLa cells. Put plainly: CellTiter-Glo cytotoxicity assay. The data set is classed as cell-based. Particulars: 20 μM. (In general: ATP-based viability assays read luminescence as a measure of living cells.)
For data set [8], the system named is HeLa cells that overexpress Bcl-2. Kind of data set: CellTiter-Glo cell death in Bcl-2 overexpressing cells. The data set is classed as cell-based.
The next data set concerns PARP. Put plainly: PARP cleavage (apoptosis). Particulars: 10 or 20 μM. The data set is classed as cell-based.

For the molecule `CN(C)CC[C@H](CSc1ccccc1)Nc1ccc(S(=O)(=O)NC(=O)c2ccc(N3CCN(Cc4ccccc4-c4ccc(Cl)cc4)CC3)cc2)cc1[N+](=O)[O-]` [ABT-737], in [1], the “inhibition of Beclin 1/Bcl-2 Alpha signal” value is on record as “inhibited in a dose-dependent manner”. Besides, in [2], the “binding of the BH3 domain of Beclin 1 to Bcl-2” value was “nanomolar efficiency”. The “binding of the BH3 domain of Bax to Bcl-2” value at BH3 domain of Bax/Bcl-2 is “nanomolar efficiency”. In [3], the “Bim/Myc-Bcl-2 interaction (co-immunoprecipitation)” value was “disrupt co-immunoprecipitation”. Besides, in data set [4], the split-luciferase luminescence activity entry is reported as “inhibited in a dose-dependent manner”. Also, the “GFP-LC3 puncta in Bcl-2 knockdown cells” value in [5] (Bcl-2 siRNA) is “no further increase in GFP-LC3 puncta”. Also, the “GFP-LC3 puncta in Beclin 1 knockdown cells” value in [5] (Beclin 1 siRNA) is listed as “no further increase in GFP-LC3 puncta”. In addition, the p62 levels result with HeLa cells [6] was “failed to alter p62 levels”. Further, in the data set with HeLa cells [7], the “cytotoxicity (CellTiter-Glo)” value is recorded as “mild cytotoxicity”. Further, the “cell death in HeLa cells that overexpress Bcl-2” value in data set [8] is on record as “more pronounced dose-dependent increase in cell death”. In addition, the PARP cleavage result with PARP is reported as “dose-dependent increase in PARP cleavage”.
